Here are results for 14 compounds from US20230233569A1 (Revolution Medicines, Inc., priority 2020, published 2023).

A word on the IC50: it is the point on the concentration scale where inhibition reaches its midpoint.

The target in one test is KRAS G12S (Homo sapiens, UniProt P01116+P62937, G12S). Nature of the test: Ras-Raf disruption / FRET / MOA assay (BRAF RBD). Particulars: with Cyclophilin A. It is filed as biochemical. An excerpt:
(§1) Disruption of […] Ras-binding Domain (BRAF^RBD) Interaction with K-Ras by Compounds of the Invention (also Called a FRET Assay or an MOA Assay)
(§2) Note—The following protocol describes a procedure for monitoring disruption of K-Ras G12C (GMP-PNP) binding to BRAF^RBD by a compound of the invention. This protocol may also be executed substituting other Ras proteins or nucleotides, such as K-Ras G12D and K-Ras G13D.
(§3) The purpose of this biochemical assay was to measure the ability of test compounds to facilitate ternary complex formation between a nucleotide-loaded K-Ras isoform and Cyclophilin A; the resulting ternary complex disrupts binding to a BRAF^RBD construct, inhibiting K-Ras signaling through a RAF effector. Data is reported as IC50 values.
(§4) In assay buffer containing 25 mM HEPES pH 7.3, 0.002% Tween20, 0.1% BSA, 100 mM NaCl and 5 mM MgCl2, tagless Cyclophilin A, His6-K-Ras-GMPPNP, and GST-BRAF^RBD were combined in a 384-well assay plate at final concentrations of 25 μM, 12.5 nM, and 50 nM, respectively. Compound was present in plate wells as a 10-point 3-fold dilution series starting at a final concentration of 30 μM. After incubation at 25° C. for 3 hours, a mixture of anti-His Eu-W1024 and anti-GST allophycocyanin was then added to assay sample wells at final concentrations of 10 nM and 50 nM, respectively, and the reaction incubated for an additional 1.5 hours. […] Compounds that facilitate disruption of a K-Ras:RAF complex were identified as those eliciting a decrease in the TR-FRET ratio relative to DMSO control wells.

For another test, the target named is KRAS G13D (Homo sapiens, UniProt P01116+P62937, G13D). Put plainly: Ras-Raf disruption / FRET / MOA assay (BRAF RBD). Format: biochemical. Particulars: with Cyclophilin A.
Excerpt: as §1, §2, §3, §4

In another test the target is KRAS G12D (Homo sapiens, UniProt P01116+P62937, G12D). Nature of the test: Ras-Raf disruption / FRET / MOA assay (BRAF RBD). It is filed as biochemical. The following applies: Ras-Raf disruption, with Cyclophilin A; read-out: KRAS G12D FRET data IC50.
Excerpt: as §1, §2, §3, §4

The target of the next test is KRAS G12V (Homo sapiens, UniProt P01116+P62937, G12V). Nature of the test: Ras-Raf disruption / FRET / MOA assay (BRAF RBD). It is filed as biochemical. Particulars: with Cyclophilin A.
Excerpt: as §1, §2, §3, §4

In another test the target is KRAS WT (Homo sapiens, UniProt P01116+P62937). Nature of the test: Ras-Raf disruption / FRET / MOA assay (BRAF RBD). It is filed as biochemical. The following applies: with Cyclophilin A.
Excerpt: as §1, §2, §3, §4

For a further test, the system named is NCI-H358 (K-Ras G12C). Put plainly: CellTiter-Glo cell viability assay, 5-day treatment. It is filed as cell-based. Particulars: Homo sapiens, NCI-H358, 120 h, 5-day treatment; read-out: H358 Cell Viability assay data (K-Ras G12C, IC50). The method in brief:
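Luminescence read-out after 5 days of compound exposure, with plates first brought to room temperature for roughly 30 minutes. Values are percent of averaged DMSO wells, fitted by four-parameter logistic regression.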
(In general: ATP-based viability assays read luminescence as a measure of living cells.)

A further test addresses NRAS Q61K (Homo sapiens, UniProt P01111+P62937, Q61K). Put plainly: Disruption of BRAF RBD interaction with Ras (FRET / MOA assay, with Cyclophilin A). Format: biochemical. Particulars: NRAS Q61K; read-out: NRAS Q61K FRET data IC50.
Excerpt: Disruption of B-Raf Ras-Binding Domain (BRAF^RBD) Interaction with K-Ras by Compounds of the Invention (Also Called a FRET Assay or an MOA Assay)
Note—The following protocol describes a procedure for monitoring disruption of K-Ras G12C (GMP-PNP) binding to BRAF^RBD by a compound of the invention. This protocol may also be executed substituting other Ras proteins or nucleotides.
as §3
as §4, with “12.5 nM” for “12.5 nM,”, “of Anti-His” for “of anti-His”
The purpose of this biochemical assay was to measure the ability of test compounds to facilitate ternary complex formation between a nucleotide-loaded K-Ras isoform and Cyclophilin A; the resulting ternary complex disrupts binding to a BRAF^RBDD construct, inhibiting K-Ras signaling through a RAF effector. Data is reported as IC50 values.

A further test concerns the target KRAS G13C (Homo sapiens, UniProt P01116+P62937, G13C). Nature of the test: Ras-Raf disruption / FRET / MOA assay (BRAF RBD). It is filed as biochemical. The following applies: Ras-Raf disruption, with Cyclophilin A; read-out: KRAS G13C FRET data IC50.
Excerpt: as §1, §2, §3, §4

[1] abbreviates: Ras-Raf disruption, read-out: KRAS G12S FRET data IC50.
The mark [2] stands for this setting: Ras-Raf disruption, read-out: KRAS G13D FRET data IC50.
The mark [3] stands for this setting: Ras-Raf disruption, read-out: KRAS G12V FRET data IC50.
Setting [4] is: Ras-Raf disruption, read-out: KRAS WT FRET data IC50.

The structures appear in SMILES notation. Read-outs that look alike come from different tables or passages of the source.

Chain of KRAS G13C (P01116 1-169 isoform P01116-2 G13C limits assumed): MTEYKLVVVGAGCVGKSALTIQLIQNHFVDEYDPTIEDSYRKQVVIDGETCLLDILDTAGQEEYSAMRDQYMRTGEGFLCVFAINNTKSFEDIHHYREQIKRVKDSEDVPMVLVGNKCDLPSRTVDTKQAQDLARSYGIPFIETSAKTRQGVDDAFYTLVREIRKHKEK
Chain of KRAS G13C (P62937 whole entry): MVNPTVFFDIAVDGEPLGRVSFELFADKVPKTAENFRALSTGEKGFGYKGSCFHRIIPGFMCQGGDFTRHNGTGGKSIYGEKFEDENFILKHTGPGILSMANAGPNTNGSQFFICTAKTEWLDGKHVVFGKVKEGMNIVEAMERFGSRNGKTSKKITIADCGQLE
Chain of KRAS G13D (P01116 1-169 isoform P01116-2 G13D limits assumed): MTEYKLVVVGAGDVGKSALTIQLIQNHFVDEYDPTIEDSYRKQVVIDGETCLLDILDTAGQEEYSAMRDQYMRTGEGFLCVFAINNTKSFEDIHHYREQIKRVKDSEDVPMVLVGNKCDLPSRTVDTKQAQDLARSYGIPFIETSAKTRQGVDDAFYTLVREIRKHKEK
Chain of KRAS G13D (P62937 whole entry): as the sequence (P62937 whole entry) above
Chain of KRAS G12V (P01116 1-169 isoform P01116-2 G12V limits assumed): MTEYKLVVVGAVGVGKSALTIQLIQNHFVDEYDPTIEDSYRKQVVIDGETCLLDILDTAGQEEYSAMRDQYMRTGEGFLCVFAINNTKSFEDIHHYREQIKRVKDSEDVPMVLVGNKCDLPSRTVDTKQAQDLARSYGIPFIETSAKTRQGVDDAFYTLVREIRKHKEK
Chain of KRAS G12V (P62937 whole entry): as the sequence (P62937 whole entry) above
Chain of KRAS WT (P01116 1-169 isoform P01116-2 limits assumed): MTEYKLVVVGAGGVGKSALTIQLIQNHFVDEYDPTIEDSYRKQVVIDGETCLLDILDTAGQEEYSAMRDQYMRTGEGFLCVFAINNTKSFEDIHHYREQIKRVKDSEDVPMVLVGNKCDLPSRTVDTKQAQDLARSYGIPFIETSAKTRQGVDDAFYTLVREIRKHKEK
Chain of KRAS WT (P62937 whole entry): as the sequence (P62937 whole entry) above
Chain of KRAS G12D (P01116 1-169 isoform P01116-2 G12D limits assumed): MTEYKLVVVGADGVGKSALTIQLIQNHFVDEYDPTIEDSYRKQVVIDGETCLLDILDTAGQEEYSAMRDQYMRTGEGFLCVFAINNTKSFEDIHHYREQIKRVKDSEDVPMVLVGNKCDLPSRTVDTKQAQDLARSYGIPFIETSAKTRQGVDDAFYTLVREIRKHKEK
Chain of KRAS G12D (P62937 whole entry): as the sequence (P62937 whole entry) above
Chain of KRAS G12S (P01116 1-169 isoform P01116-2 G12S limits assumed): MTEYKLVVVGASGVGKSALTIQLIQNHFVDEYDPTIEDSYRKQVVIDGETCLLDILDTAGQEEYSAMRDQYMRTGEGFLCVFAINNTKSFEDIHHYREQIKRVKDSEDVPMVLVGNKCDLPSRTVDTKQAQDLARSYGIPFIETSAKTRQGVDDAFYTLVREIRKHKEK
Chain of KRAS G12S (P62937 whole entry, the tested form may be a part): as the sequence (P62937 whole entry) above
Chain of NRAS Q61K (P01111 whole entry Q61K, the tested form may be a part): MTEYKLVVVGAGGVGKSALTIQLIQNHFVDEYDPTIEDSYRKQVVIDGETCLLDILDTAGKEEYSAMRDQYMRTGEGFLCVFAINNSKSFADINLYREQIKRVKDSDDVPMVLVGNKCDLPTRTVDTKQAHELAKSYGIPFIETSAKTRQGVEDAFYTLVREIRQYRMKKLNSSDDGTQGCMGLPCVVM
Chain of NRAS Q61K (P62937 whole entry, the tested form may be a part): as the sequence (P62937 whole entry) above

For `CCn1c(-c2cnccc2COC)c2c3cc(ccc31)-c1cccc(c1)C[C@H](NC(=O)[C@H](C(C)C)N(C)C(=O)CCN=C=NC(C)(C)C)C(=O)N1CCC[C@H](N1)C(=O)OCC(C)(C)C2` [79 A and B], the IC50 on KRAS G12S (setting [1]), on KRAS G13D (setting [2]) and at KRAS G12D was greater than 10 µM throughout.
In the case of `CCn1c(-c2cnccc2COC)c2c3cc(ccc31)-c1cccc(c1)C[C@H](NC(=O)[C@H](C(C)C)N(C)C(=O)CCN=C=NCCc1cccs1)C(=O)N1CCC[C@H](N1)C(=O)OCC(C)(C)C2` [68 A and B], the IC50 at KRAS G12V (setting [3]), at KRAS WT (setting [4]), at KRAS G12S (setting [1]) and at KRAS G13D (setting [2]) was greater than 10 µM throughout.
As for `CCn1c(-c2cnccc2COC)c2c3cc(ccc31)-c1cccc(c1)C[C@H](NC(=O)[C@H](C(C)C)N(C)C(=O)CCN=C=Nc1ccccc1OC)C(=O)N1CCC[C@H](N1)C(=O)OCC(C)(C)C2` [20 A and B], the IC50 on KRAS G12V (setting [3]), at KRAS WT (setting [4]), at KRAS G12S (setting [1]), on KRAS G13D (setting [2]) and at KRAS G12D was greater than 10 µM throughout.
For the compound `CCn1c(-c2cccnc2[C@H](C)OC)c2c3cc(ccc31)-c1csc(n1)C[C@H](NC(=O)[C@H](C(C)C)N(C)C(=O)N1CC(C(C)(C)O)C1)C(=O)N1CCC[C@H](N1)C(=O)OCC(C)(C)C2` (atropisomer, axis not shown) [Example A289], the IC50 in the test on NCI-H358 (K-Ras G12C) was less than 0.01 µM; at NRAS Q61K it was 0.01 to 0.1 µM.
Take `CCn1c(-c2cnccc2COC)c2c3cc(ccc31)-c1cccc(c1)C[C@H](NC(=O)[C@H](C(C)C)N(C)C(=O)[C@@H]1CCC(N=C=Nc3ccc(OC)cc3)C1)C(=O)N1CCC[C@H](N1)C(=O)OCC(C)(C)C2` (some centres unmarked) [70 A and B]: the IC50 on KRAS G12V (setting [3]), at KRAS WT (setting [4]), on KRAS G12S (setting [1]) and on KRAS G13D (setting [2]) was greater than 10 µM in each case.
For the compound `CCn1c(-c2cnccc2COC)c2c3cc(ccc31)-c1cccc(c1)C[C@H](NC(=O)[C@H](C(C)C)N(C)C(=O)CCN=C=NCCCSC)C(=O)N1CCC[C@H](N1)C(=O)OCC(C)(C)C2` [16 A and B], the IC50 on KRAS G12S (setting [1]) and at KRAS G13D (setting [2]) was greater than 10 µM in each case.
For the compound `CCn1c(-c2cnccc2COC)c2c3cc(ccc31)-c1cccc(c1)C[C@H](NC(=O)[C@H](C(C)C)N(C)C(=O)CCN=C=NCc1ccc(OC)cc1OC)C(=O)N1CCC[C@H](N1)C(=O)OCC(C)(C)C2` [61 A and B], the IC50 on KRAS G12V (setting [3]), at KRAS WT (setting [4]), at KRAS G12S (setting [1]), on KRAS G13D (setting [2]), at KRAS G12D and at KRAS G13C was greater than 10 µM in each case.
As for `CCn1c(-c2cnccc2COC)c2c3cc(ccc31)-c1cccc(c1)C[C@H](NC(=O)[C@H](C(C)C)N(C)C(=O)CCN=C=NCc1ccccc1)C(=O)N1CCC[C@H](N1)C(=O)OCC(C)(C)C2` [19 A and B], the IC50 on KRAS G12V (setting [3]), on KRAS WT (setting [4]) and at KRAS G12S (setting [1]) was greater than 10 µM throughout.
For the compound `CCn1c(-c2cnccc2COC)c2c3cc(ccc31)-c1cccc(c1)C[C@H](NC(=O)[C@H](C(C)C)N(C)C(=O)CCN=C=NCc1ccc(OC)cc1)C(=O)N1CCC[C@H](N1)C(=O)OCC(C)(C)C2` [18 A and B], the IC50 at KRAS G12V (setting [3]), on KRAS WT (setting [4]) and at KRAS G12S (setting [1]) was greater than 10 µM each time.
Turning to `CCn1c(-c2cnccc2COC)c2c3cc(ccc31)-c1cccc(c1)C[C@H](NC(=O)[C@H](C(C)C)N(C)C(=O)CCCN=C=NCCCOC)C(=O)N1CCC[C@H](N1)C(=O)OCC(C)(C)C2` [69 A and B], the IC50 at KRAS G12V (setting [3]) fell in the range of 1 to 10 µM.
Take `CCn1c(-c2cnccc2COC)c2c3cc(ccc31)-c1cccc(c1)C[C@H](NC(=O)[C@H](C(C)C)N(C)C(=O)C1CCC(N=C=Nc3ccc(OC)cc3)C1)C(=O)N1CCC[C@H](N1)C(=O)OCC(C)(C)C2` (some centres unmarked) [71 A and B]: the IC50 on KRAS G12V (setting [3]), at KRAS WT (setting [4]), on KRAS G12S (setting [1]), on KRAS G13D (setting [2]), at KRAS G12D and at KRAS G13C was greater than 10 µM in each case.
With `CCn1c(-c2cnccc2COC)c2c3cc(ccc31)-c1cc(O)cc(c1)C[C@H](NC(=O)[C@H](C(C)C)N(C)C(=O)c1ccc(NC(=O)[C@H]3CN3)cn1)C(=O)N1CCC[C@H](N1)C(=O)OCC(C)(C)C2` [47 A and B], the IC50 was in the range of 1 to 10 µM on KRAS G12D and 0.01 to 0.1 µM on KRAS G13C.
Regarding `CCn1c(-c2cnccc2COC)c2c3cc(ccc31)-c1cc(O)cc(c1)C[C@H](NC(=O)[C@H](C(C)C)N(C)C(=O)CN(C)C(=O)C1CN1)C(=O)N1CCC[C@H](N1)C(=O)OCC(C)(C)C2` (some centres unmarked) [32 A and B], the IC50 was greater than 10 µM on KRAS G12V (KRAS G12V FRET data IC50, Ras-Raf disruption); greater than 10 µM against KRAS WT (KRAS WT FRET data IC50, Ras-Raf disruption); greater than 10 µM against KRAS G12S (KRAS G12S FRET data IC50, Ras-Raf disruption); 1 to 10 µM at KRAS G13D (KRAS G13D FRET data IC50, Ras-Raf disruption).
Take `CCn1c(-c2cnccc2COC)c2c3cc(ccc31)-c1cccc(c1)C[C@H](NC(=O)[C@H](C(C)C)N(C)C(=O)CCN=C=NCc1ccccc1C)C(=O)N1CCC[C@H](N1)C(=O)OCC(C)(C)C2` [82 A and B]: the IC50 on KRAS G12V (setting [3]), on KRAS WT (setting [4]), at KRAS G12S (setting [1]), at KRAS G13D (setting [2]) and on KRAS G13C was greater than 10 µM each time.
